This passage reports cytotoxicity results from ChEMBL document CHEMBL3507680, “University of Dundee, Gates Library screen for HepG2 cell viability”.

The structures appear in SMILES notation.

The series can be described thus: Human HepG2 cell viability assay in 384 well format. In kind it is toxicity, cell-based. Details: dose 125 nL, time 70.5 hour; concentration not given beside the values. The settings on record: HepG2 cells, read-out: Inhibition.
Consider `O=C(COCc1ccccc1Cl)N1CCN(c2ccc(Br)cn2)CC1`, for which the cytotoxicity at 70.5 h is -4.89%.

Turning to `Cn1ncc2c1C(COCC1CC1)CN(S(=O)(=O)C1CC1)C2` (stereo not drawn), the cytotoxicity at 70.5 h is -4.08%.

Regarding `Cn1ccc(C(=O)NC2CCC23CCN(C(=O)c2ccccn2)CC3)c1` (stereo not drawn), the cytotoxicity at 70.5 h is -4.01%.

`CN(C)C(=O)N1CCn2c(Cn3cccn3)cnc2C1`: the cytotoxicity at 70.5 h is 1.93%.

For the compound `Cc1ccc(C(=O)N2CCc3c(COCC4CC4)cncc3C2)o1`, the cytotoxicity at 70.5 h worked out at 18.4%.

For the compound `Cc1cccc(C(=O)N2CCn3cc(CNC(=O)CC4CC4)nc3C2)n1`, the cytotoxicity at 70.5 h was -4.69%.

`COCCNC(=O)[C@H]1CN(c2ncccn2)C[C@H]2OCC[C@@H]12`: the cytotoxicity at 70.5 h was -15.6%.

Consider `CN(C)C(=O)[C@H]1C[C@@H]2CN(S(=O)(=O)c3ccccc3)C[C@H]1O2`, for which the cytotoxicity at 70.5 h is -6.1%.

Regarding `CN(C)C(=O)NC1COC2(CCN(Cc3ccc(N(C)C)cc3)CC2)C1` (stereo not drawn), the cytotoxicity at 70.5 h was -2.99%.

Regarding `Cc1ccc(N2C[C@H](C(=O)N3CCOCC3)[C@@H]3CCO[C@@H]3C2)nn1`, the cytotoxicity at 70.5 h was -11.3%.

With `CN(C)CC(=O)N1Cc2ncn(C)c2C(COCC2CCOCC2)C1` (stereo not drawn), the cytotoxicity at 70.5 h was -6.48%.

Take `O=C1[C@H]2CN(Cc3ccoc3)C[C@@H]2CCN1Cc1cccnc1`: the cytotoxicity at 70.5 h was -8.89%.

On to `c1ccc(CCN2C[C@@H]3OCCN(c4ncccn4)[C@@H]3C2)cc1`, for which the cytotoxicity at 70.5 h was -9.92%.

Regarding `Cn1cc(Cl)cc1C(=O)N1CCC2(CCCN(CC3CCC3)C2=O)C1` (stereo not drawn), the cytotoxicity at 70.5 h was found to be 18.1%.

As to `Cc1cnccc1N1CCCN(C(=O)CCc2n[nH]c(C)c2C)CC1`, the cytotoxicity at 70.5 h is 18.7%.

As for `Cc1ccccc1[C@@H]1CN(CCOCCO)C[C@H]1C(=O)O`, the cytotoxicity at 70.5 h is -6.95%.

As to `CNc1nc2c(c(C(=O)N3CCCC3)n1)CN(C(=O)C1CCCC1)CC2`, the cytotoxicity at 70.5 h was 15.7%.

As to `Cc1ccc(OCC2CCCN(CC3CCOCC3)C2)cc1` (stereo not drawn), the cytotoxicity at 70.5 h is 2.28%.

Consider `CCCc1cc(C(=O)N2CC(c3ccncc3)C2)ccn1`, for which the cytotoxicity at 70.5 h was 8.75%.

On to `Cc1cccnc1CN1CCN(C[C@]2(O)CCCN3CCCC[C@@H]32)CC1`, for which the cytotoxicity at 70.5 h is -6.65%.

Take `COCCC(=O)N1CCCC(CCC(=O)Nc2ccc(Cl)cc2)C1` (stereo not drawn): the cytotoxicity at 70.5 h was -6.03%.

`COc1ccc(N2CCN(C(=O)Cn3nc(C)c(C)c3C)C(C)C2)cc1` (stereo not drawn): the cytotoxicity at 70.5 h stood at 6.36%.

With `CN(Cc1cc(C2CC2)on1)C(=O)C(c1cccnc1)N1CCCC1` (stereo not drawn), the cytotoxicity at 70.5 h is -1.03%.

With `CCOC(=O)CNc1nc(COC)nc2c1cnn2C`, the cytotoxicity at 70.5 h was -4.25%.

In the case of `COc1ccc(CCn2ccnc2-c2cc3n(n2)CCCNC3)cc1`, the cytotoxicity at 70.5 h was -10.7%.

As for `CC(C)=CCCC1(C)CCC(=O)N(CCNc2nc(C)cc(=O)[nH]2)C1` (stereo not drawn), the cytotoxicity at 70.5 h is -10.3%.

For `CCCn1c(C)c(CC(=O)NC(C)CO)c2c1CC(C)(C)CC2=O` (stereo not drawn), the cytotoxicity at 70.5 h came out at 9.89%.

Turning to `COCCc1noc(-c2cn(CCc3ccccc3)nn2)n1`, the cytotoxicity at 70.5 h was found to be 2.44%.

Regarding `CCCc1cc(=O)[nH]c(-c2cccc(CN3CCCCCC3)c2)n1`, the cytotoxicity at 70.5 h is 25.8%.

Take `O=C(CSCC1CC1)N1C[C@@H]2CC[C@H](C1)N(Cc1ccccn1)C2=O`: the cytotoxicity at 70.5 h was -8.12%.

For the compound `C[C@@H]1CN(C2CCN(Cc3cnc(-c4cccs4)nc3)CC2)C[C@H](C)O1`, the cytotoxicity at 70.5 h amounted to 1.06%.

Regarding `CCc1nc(C)sc1C(=O)N1CCN(c2ncccc2C)CC1`, the cytotoxicity at 70.5 h was -4.24%.

Regarding `CSCc1noc(C2CCC(=O)N(CCc3ccccc3)C2)n1` (stereo not drawn), the cytotoxicity at 70.5 h was -13.9%.

With `Cc1nc(CC(=O)N2CCCN(c3ccc(F)cc3)CC2)cs1`, the cytotoxicity at 70.5 h was -3.38%.

For `CCCOC1CCCN(C(=O)Cn2cccc(C(F)(F)F)c2=O)C1` (stereo not drawn), the cytotoxicity at 70.5 h is -6.8%.

Consider `CC(C)[C@H](Nc1nc(C2CCCC2)nc2c1cnn2C)C(N)=O`, for which the cytotoxicity at 70.5 h was -12.3%.

Turning to `CC(C)CN1C[C@@H](C(=O)O)C[C@@H](C(=O)NCc2ccncc2)C1`, the cytotoxicity at 70.5 h was -2.12%.

On to `CC(=O)c1ccc(N2CCCC(CO)(Cc3ccccc3F)C2)nc1` (stereo not drawn), for which the cytotoxicity at 70.5 h came out at 20.4%.

As for `CCCNc1ncc(CN2CCN(C)C(=O)C2C)cn1` (stereo not drawn), the cytotoxicity at 70.5 h amounted to 16%.

Take `Cc1ncsc1CCC(=O)N1CCN(CCn2cncn2)CC1`: the cytotoxicity at 70.5 h was -10.7%.

Regarding `COCC(=O)NCc1cc2n(n1)CCCN(CCCC1CCCC1)C2`, the cytotoxicity at 70.5 h was -2.24%.

Consider `NC(=O)c1cncc(N2CCN(Cc3cccc4nsnc34)CC2)n1`, for which the cytotoxicity at 70.5 h is -5.47%.

Regarding `Cc1cncc(C(=O)N2C[C@@H](C(=O)O)[C@H](C(C)C)C2)c1`, the cytotoxicity at 70.5 h came out at 28.4%.

`O=C(c1csc2nc(-c3ccc(Cl)cc3)cn12)N1CCCC(CO)C1` (stereo not drawn): the cytotoxicity at 70.5 h is -5.49%.

Regarding `COCCn1c(=O)n(Cc2cccc(F)c2F)c2cc(C(=O)O)ccc21`, the cytotoxicity at 70.5 h amounted to 18.8%.

With `Cc1cccc(OC2CCN(C(=O)CNC(=O)N(C)C)CC2)c1`, the cytotoxicity at 70.5 h was -0.834%.

For `COc1cccc(OCC2CCCN(C(=O)c3cnn(C)c3)C2)c1` (stereo not drawn), the cytotoxicity at 70.5 h was 27.4%.

With `Cc1nc(C)c(-c2nnc(SCC(=O)O)n2C(C)c2ccccc2)o1` (stereo not drawn), the cytotoxicity at 70.5 h is -2.71%.

Turning to `CO[C@H]1CNC[C@@H]1NC(=O)c1cc(C)nc2c(C)cc(C)cc12`, the cytotoxicity at 70.5 h worked out at 2.49%.

Take `CCC(C)N(Cc1sccc1C)C(=O)c1ccc2cccnc2n1` (stereo not drawn): the cytotoxicity at 70.5 h is -11.7%.

Regarding `CCOc1ccc2[nH]c(=O)c(CN3CCC(N4CCCC4)CC3)cc2c1`, the cytotoxicity at 70.5 h was -4.41%.

On to `Cc1ccsc1[C@@H]1CCN(C(=O)Cc2ccc(O)cc2)C[C@H]1O`, for which the cytotoxicity at 70.5 h is -2.32%.

Consider `CC1=C(CCN2C[C@H](O)[C@@H](N3CCOCC3)C2)C(C)(C)CCC1`, for which the cytotoxicity at 70.5 h is -8.76%.

For the compound `Cn1c(Cn2ccnc2)nnc1C1CCN(C(=O)c2ccoc2)CC1`, the cytotoxicity at 70.5 h is -7.81%.

On to `COc1ncc(-c2nccn2C(C)CCn2cccn2)cn1` (stereo not drawn), for which the cytotoxicity at 70.5 h stood at 2.54%.

As for `CCC[C@H]1CN(C2CCOCC2)C[C@@H]1NC(=O)CCCn1ccnc1`, the cytotoxicity at 70.5 h was -2.79%.

On to `Cc1occc1C(=O)N1CCc2c(CNc3ncccn3)cncc2C1`, for which the cytotoxicity at 70.5 h is -1.28%.

As to `Cc1cc(CN2CCc3c(CNc4ncccn4)cncc3C2)oc1C`, the cytotoxicity at 70.5 h is -0.479%.

Consider `CO[C@H]1CCN(S(=O)(=O)c2cccs2)[C@H]1Cc1cccnc1`, for which the cytotoxicity at 70.5 h amounted to 2.3%.

In the case of `CO[C@@H]1CCN(S(=O)(=O)c2cccs2)[C@H]1Cc1cccnc1`, the cytotoxicity at 70.5 h is -4.13%.

On to `CC(C)OCc1ncn2c1CN(Cc1ccoc1)CCC2`, for which the cytotoxicity at 70.5 h was -11.8%.

For `COCC(=O)N1C[C@H]2CN(Cc3csc(C)n3)C(=O)[C@H]2C1`, the cytotoxicity at 70.5 h was -8.09%.

Consider `CCS(=O)(=O)N1CCC2(CN(c3cccc(F)c3)C(=O)CN2C)C1` (stereo not drawn), for which the cytotoxicity at 70.5 h was -8.93%.

Consider `Cc1noc([C@H]2C[C@H]3OCC[C@H]3N(Cc3cccs3)C2)n1`, for which the cytotoxicity at 70.5 h was -3.05%.

Turning to `O=C(Cc1ccccc1)N1Cc2nccn2CC(CN2CCCC2)C1` (stereo not drawn), the cytotoxicity at 70.5 h is -0.449%.

Regarding `Cc1nc(CN2C[C@@H]3CN(C(=O)C4(C#N)CC4)C[C@@H]3C2=O)cs1`, the cytotoxicity at 70.5 h is -2.26%.

Consider `CN1CC(=O)N(c2cccc(F)c2)CC12CCN(S(=O)(=O)C1CC1)C2` (stereo not drawn), for which the cytotoxicity at 70.5 h is -2.84%.

In the case of `Cc1nc2c(c(NC3CC3)n1)CCN(C(=O)CCO)CC2`, the cytotoxicity at 70.5 h is -4.49%.

As for `CN(C)C(=O)[C@H]1C[C@H]2OCC[C@H]2N(Cc2ccc(F)cc2)C1`, the cytotoxicity at 70.5 h is -7.16%.

As to `O=C1CC[C@@H]2[C@@H](CCN2C(=O)c2ccsc2)N1Cc1ccncc1`, the cytotoxicity at 70.5 h was 0.223%.

Turning to `O=C1CC(c2ccncc2)C2(CCN(C(=O)c3cccc(F)c3)CC2)N1` (stereo not drawn), the cytotoxicity at 70.5 h is -9.17%.

On to `COc1ccc(CN2CCn3cc(CNC(=O)CC4CC4)nc3C2)cc1`, for which the cytotoxicity at 70.5 h was -8.89%.

`Cc1cccc(CN2CCc3ncnc(-c4ccsc4)c3CC2)n1`: the cytotoxicity at 70.5 h is -13.6%.

As for `c1ccc(CN2CCc3ncnc(-c4ccoc4)c3CC2)nc1`, the cytotoxicity at 70.5 h is -5.45%.

Regarding `Cn1cc(CN2CCn3cc(CNC(=O)CC4CC4)nc3C2)cn1`, the cytotoxicity at 70.5 h was -7.17%.

Take `CN(C)C(=O)N1CC2(CCNCC2)c2cc(F)ccc21`: the cytotoxicity at 70.5 h is -8.45%.

For the compound `c1cnc(N2CCCC3(CCN(CC4CCC4)C3)C2)nc1` (stereo not drawn), the cytotoxicity at 70.5 h was -8.21%.

Regarding `O=C(c1ccco1)N1CCc2c(COCC3CC3)cncc2C1`, the cytotoxicity at 70.5 h was -8.01%.

For the compound `Cc1ccc(N2C[C@H]3OCC[C@H]3[C@H](C(=O)NCC3CC3)C2)nn1`, the cytotoxicity at 70.5 h is -12.5%.

Take `CO[C@@H]1CCN(Cc2nccs2)C[C@@H]1Cc1ccccc1`: the cytotoxicity at 70.5 h is -11.2%.

As for `O=C(c1ccncc1)N1C[C@@H]2CCN(c3cccnc3)C[C@@H]2C1`, the cytotoxicity at 70.5 h was -16.9%.

Turning to `Cc1cccc(CN2C(=O)C[C@H]3[C@@H]2CCN3Cc2cccs2)n1`, the cytotoxicity at 70.5 h was determined as 0.507%.

With `Cc1ccc(CN2CC[C@@H]3[C@H]2CCC(=O)N3Cc2ccncc2)s1`, the cytotoxicity at 70.5 h was 21%.

Turning to `O=C(O)c1cc2c(nc1-c1ccoc1)CCN(CC1CCOC1)CC2` (stereo not drawn), the cytotoxicity at 70.5 h was -13.1%.

For `Cn1cnc2c1C(COCC1CCOCC1)CN(c1ncccn1)C2` (stereo not drawn), the cytotoxicity at 70.5 h was -11.3%.

As for `COCC1CN(Cc2ccncc2)Cc2nn(CC3CC3)cc21` (stereo not drawn), the cytotoxicity at 70.5 h was -12.8%.

On to `O=C1[C@@H]2CCN(C3CCOCC3)C[C@@H]2OCCN1Cc1cccnc1`, for which the cytotoxicity at 70.5 h was -16%.

Consider `COCCNC(=O)C1CN(Cc2cccc(C)n2)Cc2ccnn2C1` (stereo not drawn), for which the cytotoxicity at 70.5 h is -5.1%.

Take `COCCNC(=O)C1CN(Cc2nccs2)Cc2ccnn2C1` (stereo not drawn): the cytotoxicity at 70.5 h was -6.42%.

With `Cc1cccc(CN2C(=O)CC[C@@H]3[C@H]2CCN3Cc2cccnc2)n1`, the cytotoxicity at 70.5 h was -0.831%.

Regarding `Cc1cccc(CN2C(=O)CC[C@@H]3[C@H]2CCN3Cc2nccn2C)n1`, the cytotoxicity at 70.5 h is -9.05%.

With `COCCNC(=O)C1CN(Cc2ccncc2)Cc2ccnn2C1` (stereo not drawn), the cytotoxicity at 70.5 h was -14.1%.

In the case of `c1cncc(CN2CCO[C@@H]3CN(Cc4ccoc4)CC[C@@H]3C2)c1`, the cytotoxicity at 70.5 h was -7.13%.
